The results in this text go back to patent US8729113B2 (Hoffmann-La Roche Inc., priority 2008, dated 2014).

Sequence of TAAR1 (Q923Y8 whole entry): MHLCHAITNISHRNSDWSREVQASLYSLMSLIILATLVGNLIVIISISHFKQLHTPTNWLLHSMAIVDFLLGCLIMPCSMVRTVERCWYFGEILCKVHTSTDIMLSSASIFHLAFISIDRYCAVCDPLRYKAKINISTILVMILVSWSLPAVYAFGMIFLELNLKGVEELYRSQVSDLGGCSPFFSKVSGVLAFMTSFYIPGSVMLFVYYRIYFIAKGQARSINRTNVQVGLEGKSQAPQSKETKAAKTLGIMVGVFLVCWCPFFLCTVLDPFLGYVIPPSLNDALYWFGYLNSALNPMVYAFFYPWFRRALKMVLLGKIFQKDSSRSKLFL

For the assay, the target named is TAAR1 (Mus musculus (Mouse), UniProt Q923Y8). The experiment in a line: Radioligand binding assay on TAAR1 (membranes of stably transfected HEK293 cells). Particulars: competition with [3H]-rac-2-(1,2,3,4-tetrahydro-1-naphthyl)-2-imidazoline, 4° C., 30 min. Here is the method:
For the construction of expression plasmids the coding sequences of human, rat and mouse TAAR 1 were amplified from genomic DNA essentially as described by Lindemann et al.. The Expand High Fidelity PCR System (Roche Diagnostics) was used with 1.5 mM Mg^2+ and purified PCR products were cloned into pCR2.1—TOPO cloning vector (Invitrogen) following the instructions of the manufacturer. PCR products were subcloned into the pIRESneo2 vector (BD Clontech, Palo Alto, Calif.), and expression vectors were sequence verified before introduction in cell lines.
HEK293 cells (ATCC # CRL-1573) were cultured essentially as described Lindemann et al. (2005). For the generation of stably transfected cell lines HEK293 cells were transfected with the pIRESneo2 expression plasmids containing the TAAR coding sequences (described above) with Lipofectamine 2000 (Invitrogen) according to the instructions of the manufacturer, and 24 hrs post transfection the culture medium was supplemented with 1 mg/ml G418 (Sigma, Buchs, Switzerland). After a culture period of about 10 d clones were isolated, expanded and tested for responsiveness to trace amines (all compounds purchased from Sigma) with the cAMP Biotrak Enzyme immunoassay (EIA) System (Amersham) following the non-acetylation EIA procedure provided by the manufacturer. […] Membrane Preparation and Radioligand Binding
Cells at confluence were rinsed with ice-cold phosphate buffered saline without Ca^2+ and Mg^2+ containing 10 mM EDTA and pelleted by centrifugation at 1000 rpm for 5 min at 4° C. The pellet was then washed twice with ice-cold phosphate buffered saline and cell pellet was frozen immediately by immersion in liquid nitrogen and stored until use at −80° C. Cell pellet was then suspended in 20 ml HEPES-NaOH (20 mM), pH 7.4 containing 10 mM EDTA, and homogenized with a Polytron (PT 3000, Kinematica) at 10,000 rpm for 10 s. The homogenate was centrifuged at 48,000×g for 30 min at 4° C. and the pellet resuspended in 20 ml HEPES-NaOH (20 mM), pH 7.4 containing 0.1 mM EDTA (buffer A), and homogenized with a Polytron at 10,000 rpm for 10 s. The homogenate was then centrifuged at 48,000×g for 30 min at 4° C. and the pellet resuspended in 20 ml buffer A, and homogenized with a Polytron at 10,000 rpm for 10 s. Protein concentration was determined by the method of Pierce (Rockford, Ill.). The homogenate was then centrifuged at 48,000×g for 10 min at 4° C., resuspended in HEPES-NaOH (20 mM), pH 7.0 including MgCl2 (10 mM) and […] homogenized with a Polytron at 10,000 rpm for 10 s.
Binding assay was performed at 4° C. in a final volume of 1 ml, and with an incubation time of 30 min. The radioligand [^3H]-rac-2-(1,2,3,4-tetrahydro-1-naphthyl)-2-imidazoline was used at a concentration equal to the calculated Kd value of 60 nM to give a bound at around 0.1% of the total added radioligand concentration, and a specific binding which represented approximately 70-80% of the total binding. Non-specific binding was defined as the amount of [^3H]-rac-2-(1,2,3,4-tetrahydro-1-naphthyl)-2-imidazoline bound in the presence of the appropriate unlabelled ligand (10 μM). Competing ligands were tested in a wide range of concentrations […]. […] Each experiment was performed in duplicate. All incubations were terminated by rapid filtration through UniFilter-96 plates (Packard Instrument Company) and glass filter GF/C, pre-soaked for at least 2 h in polyethylenimine 0.3%, and using a Filtermate 96 Cell Harvester (Packard Instrument Company). The tubes and filters were then washed 3 times with 1 ml aliquots of cold buffer B. Filters were not dried and soaked in Ultima gold (45 μl/well, Packard Instrument Company) and bound radioactivity was counted by a TopCount Microplate Scintillation Counter (Packard Instrument Company).
Compound `NC1=N[C@@H](CCOc2ccc(Cl)cc2F)CO1` [Example 58, (S)-4-[2-(4-Chloro-2-fluoro-phenoxy)-ethyl]-4,5-dihydro-oxazol-2-ylamine] came in with a Ki of 0.0041 µM.

`COc1ccc(OCC[C@H]2COC(N)=N2)cc1` [Example 59, (S)-4-[2-(4-Methoxy-phenoxy)-ethyl]-4,5-dihydro-oxazol-2-ylamine] displayed an inhibitory constant (Ki) of 0.0076 µM.

Consider `NC1=N[C@@H](CCC2(c3ccc(F)cc3)CC2)CO1` [Example 60, (S)-4-{2-[1-(4-Fluoro-phenyl)-cyclopropyl]-ethyl}-4,5-dihydro-oxazol-2-ylamine], for which the Ki stood at 0.0025 µM.

`C[Si](C)(CC[C@H]1COC(N)=N1)c1cccc(Cl)c1` [Example 61, (S)-4-{2-[(3-Chloro-phenyl)-dimethyl-silanyl]-ethyl}-4,5-dihydro-oxazol-2-ylamine] showed a Ki of 0.0055 µM.

Regarding `N#Cc1cccc(OCC[C@H]2COC(N)=N2)c1` [Example 63, 3-[2-((S)-2-Amino-4,5-dihydro-oxazol-4-yl)-ethoxy]-benzonitrile], the affinity corresponds to a Ki of 0.001 µM.

For `C[C@@H](C[C@H]1COC(N)=N1)Oc1ccc(F)cc1` [Example 64], the Ki came to 0.0076 µM.

`C[Si](C)(CC[C@H]1COC(N)=N1)c1ccc(Cl)cc1` [Example 67, (S)-4-{2-[(4-Chloro-phenyl)-dimethyl-silanyl]-ethyl}-4,5-dihydro-oxazol-2-ylamine] displayed a Ki of 0.0046 µM.

For `C[C@@H](C[C@H]1COC(N)=N1)Oc1cccc(Cl)c1` [Example 68, (S)-4-[(S)-2-(3-Chloro-phenoxy)-propyl]-4,5-dihydro-oxazol-2-ylamine], the Ki turned out to be 0.0012 µM.

`C[C@@H](C[C@H]1COC(N)=N1)Oc1ccc(F)c(F)c1` [Example 69, (S)-4-[(S)-2-(3,4-Difluoro-phenoxy)-propyl]-4,5-dihydro-oxazol-2-ylamine] yielded a Ki of 0.008 µM.

Compound `C[C@@H](C[C@H]1COC(N)=N1)Oc1ccc(Cl)c(F)c1` [Example 70, (S)-4-[(S)-2-(4-Chloro-3-fluoro-phenoxy)-propyl]-4,5-dihydro-oxazol-2-ylamine] yielded a Ki of 0.0036 µM.

In turn, `C[C@@H](C[C@H]1COC(N)=N1)Oc1ccc(Br)cc1` [Example 71, (S)-4-[(S)-2-(4-Bromo-phenoxy)-propyl]-4,5-dihydro-oxazol-2-ylamine] displayed a Ki of 0.0024 µM.

As to `C[C@@H](C[C@H]1COC(N)=N1)Oc1ccc(F)c(Cl)c1` [Example 72, (S)-4-[(S)-2-(3-Chloro-4-fluoro-phenoxy)-propyl]-4,5-dihydro-oxazol-2-ylamine], the Ki worked out at 0.0024 µM.

In the case of `C[C@@H](C[C@H]1COC(N)=N1)Oc1ccc(Cl)cc1F` [Example 73, (S)-4-[(S)-2-(4-Chloro-2-fluoro-phenoxy)-propyl]-4,5-dihydro-oxazol-2-ylamine], the affinity, expressed as Ki, was 0.0021 µM.

`C[C@@H](C[C@H]1COC(N)=N1)Oc1ccc(F)cc1F` [Example 74, (S)-4-[(S)-2-(2,4-Difluoro-phenoxy)-propyl]-4,5-dihydro-oxazol-2-ylamine] came in with a Ki of 0.004 µM.

In turn, `C[C@@H](C[C@H]1COC(N)=N1)Oc1ccc(Cl)c(Cl)c1` [Example 75, (S)-4-[(S)-2-(3,4-Dichloro-phenoxy)-propyl]-4,5-dihydro-oxazol-2-ylamine] displayed a Ki of 0.001 µM.

Take `C[C@@H](C[C@H]1COC(N)=N1)Oc1ccc(Oc2ccccc2)cc1` [Example 79, (S)-4-[(S)-2-(4-Phenoxy-phenoxy)-propyl]-4,5-dihydro-oxazol-2-ylamine]: the affinity, expressed as Ki, was 0.0086 µM.

In turn, `C[C@@H](C[C@H]1COC(N)=N1)Oc1ccccc1` [Example 81] registered a Ki of 0.0064 µM.

`C[C@H](C[C@H]1COC(N)=N1)Oc1cccc(Cl)c1` [Example 84, (S)-4-[(R)-2-(3-Chloro-phenoxy)-propyl]-4,5-dihydro-oxazol-2-ylamine]: the affinity corresponds to a Ki of 0.0076 µM.

With `C[C@H](C[C@H]1COC(N)=N1)Oc1ccc(F)c(Cl)c1` [Example 85, (S)-4-[(R)-2-(3-Chloro-4-fluoro-phenoxy)-propyl]-4,5-dihydro-oxazol-2-ylamine], the affinity corresponds to a Ki of 0.0059 µM.

Consider `NC1=N[C@@H](CCOc2ccc(C(F)(F)F)cc2)CO1` [Example 88, (S)-4-[2-(4-Trifluoromethyl-phenoxy)-ethyl]-4,5-dihydro-oxazol-2-ylamine], for which the affinity corresponds to a Ki of 0.0048 µM.

In the case of `NC1=N[C@@H](CCC2(c3ccc(F)cc3F)CC2)CO1` [Example 89, (S)-4-{2-[1-(2,4-Difluoro-phenyl)-cyclopropyl]-ethyl}-4,5-dihydro-oxazol-2-ylamine], affinity was put at a Ki of 0.0059 µM.

The compound `CC(CCc1ccccc1)[C@H]1COC(N)=N1` (stereo partly drawn) [Example 90, (4S)-4-(1-Methyl-3-phenyl-propyl)-4,5-dihydro-oxazol-2-ylamine] returned a Ki of 0.008 µM.

The compound `NC1=N[C@@H](CCC2(c3ccc(F)c(Cl)c3)CC2)CO1` [Example 91, (S)-4-{2-[1-(3-Chloro-4-fluoro-phenyl)-cyclopropyl]-ethyl}-4,5-dihydro-oxazol-2-ylamine] had a Ki of 0.0006 µM.

On to `C[C@H](C[C@H]1COC(N)=N1)Oc1ccc(Cl)c(Cl)c1` [Example 96, (S)-4-[(R)-2-(3,4-Dichloro-phenoxy)-propyl]-4,5-dihydro-oxazol-2-ylamine], for which the Ki was 0.0062 µM.

`CC[C@@H](C[C@H]1COC(N)=N1)Oc1ccc(Cl)cc1` [Example 107, (S)-4-[(S)-2-(4-Chloro-phenoxy)-butyl]-4,5-dihydro-oxazol-2-ylamine]: the Ki was 0.001 µM.

Regarding `NC1=N[C@@H](CCC2(c3ccc(F)c(F)c3)CC2)CO1` [Example 108, (S)-4-{2-[1-(3,4-Difluoro-phenyl)-cyclopropyl]-ethyl}-4,5-dihydro-oxazol-2-ylamine], the Ki stood at 0.0014 µM.

Turning to `CC[C@@H](C[C@H]1COC(N)=N1)Oc1ccccc1` [Example 109, (S)-4-((S)-2-Phenoxy-butyl)-4,5-dihydro-oxazol-2-ylamine], the Ki was 0.0016 µM.

Turning to `NC1=N[C@@H](CCC2(c3ccc(Cl)cc3)CCC2)CO1` [Example 110, (S)-4-{2-[1-(4-Chloro-phenyl)-cyclobutyl]-ethyl}-4,5-dihydro-oxazol-2-ylamine], the Ki amounted to 0.0059 µM.

Compound `CC[C@@H](C[C@H]1COC(N)=N1)Oc1ccc(Br)cc1` [Example 111, (S)-4-[(S)-2-(4-Bromo-phenoxy)-butyl]-4,5-dihydro-oxazol-2-ylamine] showed a Ki of 0.001 µM.

Compound `CC[C@@H](C[C@H]1COC(N)=N1)Oc1cccc(Cl)c1` [Example 112] came in with a Ki of 0.0012 µM.

Consider `CC[C@@H](C[C@H]1COC(N)=N1)Oc1ccc(Cl)c(F)c1` [Example 113, (S)-4-[(S)-2-(4-Chloro-3-fluoro-phenoxy)-butyl]-4,5-dihydro-oxazol-2-ylamine], for which the affinity, expressed as Ki, was 0.0037 µM.

`CC[C@@H](C[C@H]1COC(N)=N1)Oc1ccc(F)cc1F` [Example 114, (S)-4-[(S)-2-(2,4-Difluoro-phenoxy)-butyl]-4,5-dihydro-oxazol-2-ylamine] had a Ki of 0.0019 µM.

Compound `C[C@@H](CC[C@H]1COC(N)=N1)c1ccc(F)cc1` [Example 115, (S)-4-[(S)-3-(4-Fluoro-phenyl)-butyl]-4,5-dihydro-oxazol-2-ylamine] registered a Ki of 0.0031 µM.

The compound `C[C@H](CC[C@H]1COC(N)=N1)c1ccc(F)cc1` [Example 116, (S)-4-[(R)-3-(4-Fluoro-phenyl)-butyl]-4,5-dihydro-oxazol-2-ylamine] registered a Ki of 0.0011 µM.

Compound `CC[C@@H](C[C@H]1COC(N)=N1)Oc1ccc(F)cc1` [Example 117, (S)-4-[(S)-2-(4-Fluoro-phenoxy)-butyl]-4,5-dihydro-oxazol-2-ylamine] had a Ki of 0.0032 µM.

As usually defined, the Ki is the equilibrium dissociation constant of an inhibitor or competing ligand from its target. The low end stands for tighter binding, the high end for weaker binding.
